Source: patent publication US8163795B2, “Chroman derivatives, medicaments and use in therapy” (Marshall Edwards, Inc., priority 2004, dated 2012)

Key:
PGE2 = test: Eicosanoid synthesis in LPS-stimulated murine macrophages (RAW 264.7); format: cell-based, mouse; details: 10 μM; negative values indicate inhibition
Protocol: (§1) The mouse macrophage cell line RAW 264.7 was cultured in DMEM supplemented with foetal calf serum (FCS), 2 mM glutamine and 50 U/ml penicillin/streptomycin. Subconfluent cells were detached from the flask by gentle scraping and 24-well plates seeded at 5×10^5 cells per well and allowed to adhere for 1 hr. Cells were then treated either test compound at a concentration of 10 μM (in 0.025% DMSO) or vehicle alone, and incubated for 1 hr. LPS 50 ng/ml (LPS—Sigma-Aldrich) was then added. After incubation for 16 hrs, culture media was collected and stored at −80° C. for ecosanoid measurements using enzyme immunometric assays (PGE2 and TXB2—Cayman Chemical).
(§2) Table 16: Percentage change in eicosanoid synthesis after incubating test compound at 10 μM compared with incubation with vehicle alone.

TXB2 = test: as above; format: cell-based, mouse; details: 10 μM; negative values indicate inhibition
Protocol: as §1, §2

[1] = tested on: CP70 ovarian cancer cell line; test: Proliferation assay (MTT); format: cell-based; details: Table 2.2 (further studies); Ovarian CP70; read-out: IC50
MM200 melanoma cell line [2] = test: Proliferation assay (MTT); format: cell-based; details: Table 2.2; Melanoma MM200; read-out: IC50
[3] = tested on: MDA-MB-468 breast cancer cell line; test: Proliferation assay (MTT); format: cell-based; details: Homo sapiens, MDA-MB-468, Table 2.2; Breast MDA-MB-468; read-out: IC50
[4] = tested on: HPAC (CRL-2119) pancreatic cancer cell line; test: Proliferation assay (MTT); format: cell-based, human; details: Homo sapiens, HPAC, Table 2.2; Pancreatic HPAC; read-out: IC50
HTB-138 (Glioma) = test: Proliferation assay (MTT); format: cell-based; details: Table 2.2; Glioma HTB-138
Protocol: (§3) All cultures were supplemented with 10% FCS (fetal calf serum CSL, Australia), penicillin (100 U/ml), streptomycin ([…]), L-glutamine (2 mM) and sodium bicarbonate (1.2 g/L), and cultured at 37° C. in a humidified atmosphere of 5% CO2. All cell lines were purchased from ATCC (Maryland, USA) except where noted.
(§4) IC50 values were determined for each cell line. Cells were seeded in 96-well plates at an appropriate cell density as determined from growth kinetics analysis and cultured for 5 days in the absence and presence of the test compounds. Cell proliferation was assessed after the addition of 20 μl of 3-4,5 dimethylthiazol-2,5-diphenyl tetrazolium bromide (MTT, 2.5 mg/ml in PBS, Sigma) for 3-4 hrs at 37° C. according to manufacturer's instructions. IC50 values were calculated from semi-log plots of % of control proliferation on the y-axis against log dose on the x-axis.

[5] = tested on: PC3 prostate cancer cell line; test: Proliferation assay (MTT); format: cell-based; details: Table 2.2
Protocol: as §3, §4

NCI-H460 (Lung) = test: Proliferation assay (MTT); format: cell-based; details: Homo sapiens, NCI-H460, Table 2.2; NSC Lung NCI-H460
Protocol: as §3, §4

HT-29 (Colorectal) = test: Proliferation assay (MTT); format: cell-based; details: Homo sapiens, HT-29, Table 2.2; Colorectal HT-29
Protocol: as §3, §4

CCRF-CEM (Leukemic) = test: Proliferation assay (MTT); format: cell-based; details: Homo sapiens, CCRF-CEM, Table 2.2; Leukaemia CCRF-CEM
Protocol: as §3, §4

TNFα = test: Inhibition of TNFα in LPS-stimulated murine macrophages (RAW 264.7); format: cell-based, mouse; details: for Inhibition of TNFα, dose dependence: over the concentration ranges tested
Protocol: The mouse macrophage cell line RAW 264.7 was cultured in DMEM supplemented with FCS, 2 mM glutamine and 50 U/ml penicillin/streptomycin. Subconfluent cells were detached from the flask by gentle scraping and 24-well plates seeded at 5×10^5 cells per well and allowed to adhere for 1 hr. Cells were treated with either test agent (in 0.025% DMSO) or vehicle alone, 1 hr prior to the addition of 50 ng/ml LPS. After incubation for 16 hrs, culture media was collected and stored at −80° C. for TNFα measurement using an enzyme immunometric assay (Becton Dickinson).

[6] = tested on: Mel-RM melanoma cell line; test: HMC combination with doxorubicin (synergy); format: cell-based; details: Table 12, single agent
Protocol: (§5) IC50 values were determined for each cell line. Cells were seeded in 96-well plates at an appropriate cell density as determined from growth kinetics analysis and cultured for 5 days in the absence and presence of the test compounds. […] IC50 values were calculated from semi-log plots of % of control proliferation on the y-axis against log dose on the x-axis.
(§6) 3-D model analysis of the cytotoxic interaction between drug A and drug B enables the representation of predicted inhibitory effect of two drugs in combination in 3 dimensions to reveal actual regions of synergy or antagonism. […] Theoretical Additivity was calculated from the cytotoxicities of drug A and drug B as monotherapies using the following formula which assumes the drugs are mutually exclusive inhibitors: […]
HMC synergy with doxorubicin was assessed either in combination over 5 days exposure or in sequence (HMC→doxorubicin) against the Mel-RM melanoma cell line.

[7] = tested on: Mel-RM melanoma cell line; test: HMC combination with gemcitabine (synergy); format: cell-based; details: Table 9, single agent
Protocol: as §4
(§7) 3-D model analysis of the cytotoxic interaction between drug A and drug B enables the representation of predicted inhibitory effect of two drugs in combination in 3 dimensions to reveal actual regions of synergy or antagonism. The 3D synergy plots are based on a theory of “Theretical Additivity” (TA) as outlined by Kanzawa et al (Int. J. Cancer 71, 311-319 (1997)). Theoretical Additivity was calculated from the cytotoxicities of drug A and drug B as monotherapies using the following formula which assumes the drugs are mutually exclusive inhibitors: […]
(§8) The TA is calculated for each combination of drug concentrations and subtracted from the observed experimental effect for each combination to give a measurement of synergisitic action.
HMC synergy with gemcitabine was assessed either in combination over 5 days exposure or in sequence (HMC→gemcitabine) against the Mel-RM melanoma cell line. It was difficult to assess for synergisitic toxicity using a change in IC50 as a measure of synergy due to HMC toxicity as monotherapy (Table 9). […] Evidence of synergy using the HMC-gemcitabine combination was further assessed using the HMC→gemcitabine sequence (24 hr exposure to each compound in sequence) against the melanoma cell line Mel-RM. Using change in IC50 to assess for synergy it was noted that HMC at concentrations of 2 and 1 μM markedly chemosensitised the Mel-RM cells to gemcitabine by >1000 fold. HMC-induced chemosensitisation of Mel-RM cells to gemcitabine was confirmed using 3D analysis of the data.

4405 melanoma cell line = test: HMC combination with paclitaxel (synergy); format: cell-based; details: Table 10; single agent, 24 hr exposure; read-out: IC50, 24 hr (monotherapy)
Protocol: as §4, §7, §8
HMC synergy with paclitaxel was assessed either in combination over 5 days exposure or in sequence (HMC→paclitaxel) against the 4405 melanoma cell line. It was difficult to assess for synergisitic toxicity using a change in IC50 as a measure of synergy due to HMC toxicity as monotherapy (Table 10). […] Evidence of synergy using the HMC-paclitaxel combination was further assessed using the HMC→paclitaxel sequence (24 hr exposure to each compound in sequence) against the melanoma cell line 4405. Using change in IC50 to assess for synergy it was noted that HMC at concentrations of 2 μM markedly chemosensitised the 4405 cells to paclitaxel by >1000 fold (Table 10). HMC-induced chemosensitisation of […] cells to paclitaxel was confirmed using 3D analysis of the data.

MM200 melanoma cell line [8] = test: HMC combination with topotecan (synergy); format: cell-based; details: Table 11, single agent
Protocol: as §5, §6
HMC synergy with topotecan was assessed either in combination over 5 days exposure or in sequence (HMC→topotecan) against the MM200 melanoma cell line.

[9] = Concentration 10 μM, RAW 264.7, LPS 50 ng/ml, 16 hrs
[10] = 120 h, 5 days exposure, read-out: IC50, Combined (monotherapy)
[11] = 24 hr exposure, read-out: IC50, 24 hr (monotherapy)

| Compound | IC50 [1] [µM] | IC50 (MM200 melanoma cell line [2]) [µM] | IC50 [3] [µM] | IC50 [4] [µM] | IC50 (HTB-138 (Glioma)) [µM] | IC50 [5] [µM] | IC50 (HT-29 (Colorectal)) [µM] | IC50 (CCRF-CEM (Leukemic)) [µM] | Inhibition of TNFα (TNFα; Concentration 0.001 μM) | Inhibition of TNFα (TNFα; Concentration 0.1 μM) | Inhibition of TNFα (TNFα; Concentration 1 μM) | Inhibition of TNFα (TNFα; [9]) | also measured |
| --- | --- | --- | --- | --- | --- | --- | --- | --- | --- | --- | --- | --- | --- |
| Oc1ccc(C2COc3cc(O)ccc3C2c2ccccc2)cc1 (stereo not shown) [Compound 2, 3-(4-hydroxyphenyl)-4-phenylchroman-7-ol] | 3 ± 1.2 | 7.34 | 1.9 | 24.4 ± 12 | 3.77 | 4.2 ± 0.02 | 59.4 | 4.02 | – | – | – | – | Percentage change in PGE2 synthesis vs vehicle alone (PGE2): −12.6%; Percentage change in TXB2 synthesis vs vehicle alone (TXB2): 16%; IC50 (NCI-H460 (Lung)): 5.4 ± 2.1 µM |
| COc1ccc(C2c3ccc(O)cc3OCC2c2ccc(OC)c(OC)c2)cc1 (stereo not shown) [Compound 4, 3-(3,4-dimethoxyphenyl)-4-(4-methoxyphenyl)chroman-7-ol] | – | – | – | – | – | – | – | – | −14.3 | −6.3 | −11.9 | −6.1 | Inhibition of TNFα (TNFα; Concentration 0.01 μM): −11.3 |
| COc1ccc(C2COc3cc(OC)ccc3C2c2ccc(OC)cc2)cc1 (stereo not shown) [Compound 6, 3-(4-methoxyphenyl)-4-(4-methoxyphenyl)-7-methoxychroman] | > 100 | > 100 | 28.7 ± 3.6 | > 100 | > 100 | 116 ± 57 | > 100 | 92 ± 81.6 | 1.0 | −10.4 | −13.0 | −48.7 | Inhibition of TNFα, dose dependence (TNFα): inhibit TNFα in murine macrophages in a dose dependent manner; Percentage change in PGE2 synthesis vs vehicle alone (PGE2): −37.7%; Percentage change in TXB2 synthesis vs vehicle alone (TXB2): −16.4% |
| COc1cc(O)cc(OC)c1C1c2ccc(O)cc2OCC1c1ccc(O)cc1 (stereo not shown) [Compound 7, 3-(4-hydroxyphenyl)-4-(2,6-dimethoxy-4-hydroxyphenyl)chroman-7-ol] | – | – | – | – | – | – | – | – | 19.2 | −1.4 | −25.4 | −26.2 | Inhibition of TNFα, dose dependence (TNFα): inhibit TNFα in murine macrophages in a dose dependent manner |
| Nc1cccc(C2c3ccc(O)cc3OCC2c2ccc(O)cc2)c1 (stereo not shown) [Compound 14, 3-(4-hydroxyphenyl)-4-(3-aminophenyl)chroman-7-ol] | > 100 | 93 ± 2.9 | 56.6 | 79 ± 56 | 53.5 ± 14 | 32.5 ± 2.1 | 45 ± 4.7 | 73 ± 51.6 | – | – | – | – | IC50 (NCI-H460 (Lung)): 65 µM |
| COc1cccc2c1C(=O)c1c(O)c3c(c(O)c1C2=O)C[C@@](O)(C(=O)CO)C[C@@H]3O[C@H]1C[C@H](N)[C@H](O)[C@H](C)O1 [Doxorubicin, doxorubicin, reference compound] | – | – | – | – | – | – | – | – | – | – | – | – | IC50 [6, 10]: 0.19 µM; IC50 [6, 11]: 0.1 µM |
| Nc1ccn([C@@H]2O[C@H](CO)[C@@H](O)C2(F)F)c(=O)n1 [Gemcitabine, gemcitabine, reference compound] | – | – | – | – | – | – | – | – | – | – | – | – | IC50 [7, 10]: 0.00388 µM; IC50 [7, 11]: 0.00467 µM |
| CC(=O)O[C@H]1C(=O)[C@@]2(C)[C@H]([C@H](OC(=O)c3ccccc3)[C@]3(O)C[C@H](OC(=O)[C@H](O)[C@@H](NC(=O)c4ccccc4)c4ccccc4)C(C)=C1C3(C)C)[C@]1(OC(C)=O)CO[C@@H]1C[C@@H]2O [Paclitaxel, paclitaxel, reference compound] | – | – | – | – | – | – | – | – | – | – | – | – | IC50 (4405 melanoma cell line): 0.000584 µM |
| CC[C@@]1(O)C(=O)OCc2c1cc1n(c2=O)Cc2cc3c(CN(C)C)c(O)ccc3nc2-1 [Topotecan, topotecan, reference compound] | – | – | – | – | – | – | – | – | – | – | – | – | IC50 (MM200 melanoma cell line [8]; [10]): 0.095 µM; IC50 (MM200 melanoma cell line [8]; [11]): 2.22 µM |
